Experimental data: PMC7961380, “A Systematic Study of the In Vitro Pharmacokinetics and Estimated Human In Vivo Clearance of Indole and Indazole-3-Carboxamide Synthetic Cannabinoid Receptor Agonists Detected on the Illicit Drug Market” (Molecules, 2021)
Where two headings read alike, the source gives them in different places.

Key:
[1] = Short-term plasma stability with and without esterase inhibitors; conditions: human, pH 7.4, Parent Compound Remaining (%), 3 h, 37 °C
Method: The pooled plasma used for both plasma stability and plasma binding studies originated from 50 donors, collected as whole blood from donors in the United States at an FDA-approved collection center, processed into plasma by centrifugation and immediately frozen (Innovative Research; Novi, MI, USA) and purchased from Patricell (Nottingham, UK). […] Stock solutions were prepared in DMSO. […] For incubations without inhibitor an equivalent volume of DMSO was included. Plasma mixture was pre-incubated at 37 °C for 5 min. Test compounds (5 µM) and procaine (positive control, 50 µM) were added to pre-warmed plasma mixture containing inhibitors. Incubation volume was 1 mL. Samples were mixed and 80 µL was immediately sampled and quenched into 200 µL ACN spiked with donepezil (internal standard (IS), 50 ng mL^−1). […] Peak area ratio of analyte to IS was used to determine half-lives of test compounds in plasma, both with and without the presence of esterase inhibitors.
The human plasma used was pooled from 50 donors, and was collected as whole blood from donors in
the United States at an FDA-approved collection center, processed into plasma by centrifugation and
The stability of the tested SCRAs, select metabolites and procaine control in pooled human plasma over
inhibitors bis(4-nitrophenyl) phosphate (BNPP) and phenyl methyl sulphonyl fluoride (PMSF) is

[2] = Plasma protein binding by equilibrium dialysis; format: in vitro ADME, human; conditions: for fraction unbound at 5 h, 10 µg mL^−1: human, pooled human plasma, pH 7.4, equilibrium dialysis 5 h, 37 °C
Method: Plasma protein binding was assessed by equilibrium dialysis in a 96-well dialysis block (HTDialysis, Ledyard, CT, USA). Dialysis membranes (12–14 kDa) were soaked in deionised water for at least 60 min. Membranes were soaked overnight at 4 °C in ethanol:water 20:80% v/v and then rinsed with deionised water immediately prior to use. […] Spiked plasma (150 µL) was dialysed against isotonic phosphate buffer (pH 7.4) (150 µL) for 5 h at 37 °C with shaking at 100 rpm. Thermal degradation controls for each test compound were kept at 37 °C and 4 °C. Blank control plasma and buffer were included in the incubation. Following incubation, dialysed plasma samples and thermal degradation controls (50 µL) were added to drug-free buffer (50 µL), and dialysed buffer samples (50 µL) were added to drug-free plasma (50 µL). […] Supernatant (150 µL) was added to 50 µL deionised water and samples were analysed by UPLC-MS/MS as described above. Dialysed buffer from each well was tested for protein contamination using BCA protein assay reagent to determine whether membranes had been compromised.
Bu = Analyte/IS ratio determined in buffer side (2) Fraction unbound, fu=(100−% bound)/100

[3] = Metabolic stability, pooled human cryopreserved hepatocyte incubations; conditions: human, hepatocytes; for CLint scaled at 0.5 µM: Intrinsic clearance, pHHeps, alternative hepatocyte cell density 99x10^6 hepatocytes per gram liver; for half-life at 0.5 µM: T1/2 (min), pHHeps 0.25 million cells mL^−1, 0.5 µM, 37 °C, n ≥ 3 ± SD
[4] = system: pooled human cryopreserved hepatocytes (pHHeps); assay: as above; conditions: for Predicted In Vivo Hepatic Clearance, CLH: from pHHeps CLint, well-stirred model with plasma fu, Q 21 mL min^−1 kg^−1
[5] = Metabolic stability, pooled human liver microsome incubations; conditions: for Predicted In Vivo Hepatic Clearance, CLH: from pHLM CLint, well-stirred model with plasma fu, Q 21 mL min^−1 kg^−1; for CLint scaled at 0.5 µM / half-life at 0.5 µM: human, microsomes; for CLint scaled at 0.5 µM: pH 7.4, Intrinsic clearance; for half-life at 0.5 µM: pH 7.4, T1/2 (min), pHLM 0.5 mg mL^−1, 0.5 µM, NADPH, 37 °C; for half-life at 0.5 µM / Microsomal Intrinsic Clearance, CLint micr: n ≥ 3 ± SD
[6] = Esterase Inhibitors, pH 7.4, BNPP and PMSF 500 µM each
[7] = plasma, No Esterase Inhibitors, pH 7.4, pooled human plasma
[8] = 10 µg mL^−1, read-out: PPB (%) (converted)
[9] = plasma, read-out: Fraction Unbound (fu)
[10] = pHHeps, 99x10^6 hepatocytes per gram liver
[11] = pHLM, alternative microsomal scaling factor 32 mg microsomal protein per gram liver
[12] = pHLM, alternative microsomal scaling factor 45 mg microsomal protein per gram liver
[13] = pHLM, scaling factor 32 mg microsomal protein per gram liver
[14] = pHLM, scaling factor 45 mg microsomal protein per gram liver

Row | SMILES | remaining at 3 h, 5 µM [1, 6] | remaining at 3 h, 5 µM [1, 7] | fraction unbound at 5 h, 10 µg mL^−1 [2, 8] | fraction unbound at 5 h, 10 µg mL^−1 [2, 9] | CLint scaled at 0.5 µM [3] | half-life at 0.5 µM [3] | Predicted In Vivo Hepatic Clearance, CLH [4] | Hepatic extraction ratio, EH ([4]; from pHHeps incubations) | Hepatic extraction ratio, EH [4, 10] | Predicted in vivo hepatic clearance, CLH [4, 10] | % parent compound remaining, Average ([4]; pHHeps, 3 min) | % parent compound remaining, Average ([4]; pHHeps, 6 min) | % parent compound remaining, Average ([4]; pHHeps, 9 min) | % parent compound remaining, Average ([4]; pHHeps, 15 min) | % parent compound remaining, Average ([4]; pHHeps, 30 min) | % parent compound remaining, Average ([4]; pHHeps, 45 min) | % parent compound remaining, Average ([4]; pHHeps, 60 min) | Predicted In Vivo Hepatic Clearance, CLH [5] | Hepatic extraction ratio, EH ([5]; from pHLM incubations) | CLint scaled at 0.5 µM [5, 11] | other results
1 | C=CCCCn1cc(C(=O)N[C@@H](C(=O)OC)C(C)C)c2ccccc21 [(R)-AMB-4en-PICA (7), methyl 3-methyl-2-[(1-pent-4-enylindole-3-carbonyl)amino] butanoate] | 95.5 ± 2.9% | 91.7 ± 1.9% | 0.059 | 0.059 ± 0.001 | 1470 mL/min/kg | 5.5 ± 2.1 min | 16.79 ± 1.33 mL/min/kg | 0.80 ± 0.063 | 0.79 ± 0.066 | 16.53 ± 1.39 mL/min/kg | 57.7% | 46.1% | 25.6% | 13.7% | 4.6% | 1.6% | 0.6% | 11.8 ± 0.97 mL/min/kg | 0.56 ± 0.046 | 286 mL/min/kg | recovery (total peak area in dialysed samples vs 4 °C samples) ([2]; PPB thermal stability control, 5 h): 95 ± 2.0%; CLint scaled at 0.5 µM [5, 12]: 402 mL/min/kg; half-life at 0.5 µM [5]: 4.1 ± 0.75 min; % parent compound remaining, Average ([5]; pHLM, 3 min): 56.4%; % parent compound remaining, Average ([5]; pHLM, 6 min): 36.2%; % parent compound remaining, Average ([5]; pHLM, 9 min): 22.6%; % parent compound remaining, Average ([5]; pHLM, 15 min): 9.6%; % parent compound remaining, Average ([5]; pHLM, 30 min): 1.6%; Microsomal Intrinsic Clearance, CLint micr ([5]; pHLM): 0.348 ± 0.068 mL min^−1 mg Microsomal Protein^−1; Hepatic extraction ratio, EH [5, 13]: 0.44 ± 0.047; Predicted in vivo hepatic clearance, CLH [5, 13]: 9.28 mL/min/kg; Predicted in vivo hepatic clearance, CLH [5, 14]: 11.05 mL/min/kg
2 | C=CCCCn1nc(C(=O)N[C@@H](C(=O)OC)C(C)(C)C)c2ccccc21 [(R)-MDMB-4en-PINACA (5), methyl 3,3-dimethyl-2-[1-(pent-4-en-1-yl)-1H-indazole-3-carboxamido] butanoate] | 89.4 ± 3.4% | 87.2 ± 6.9% | 0.019 | 0.019 ± 0.0071 | 335 ± 61.6 mL/min/kg | 22 ± 3.6 min | 5.16 ± 0.70 mL/min/kg | 0.25 ± 0.033 | 0.23 ± 0.032 | 4.86 ± 0.67 mL/min/kg | 80.8% | 77.7% | 70.3% | 58.1% | 38.0% | 26.6% | 20.8% | 4.94 ± 0.39 mL/min/kg | 0.24 ± 0.019 | 208 mL/min/kg | CLint scaled at 0.5 µM [5, 12]: 292 mL/min/kg; half-life at 0.5 µM [5]: 5.5 ± 0.59 min; % parent compound remaining, Average ([5]; pHLM, 3 min): 68.4%; % parent compound remaining, Average ([5]; pHLM, 6 min): 48.2%; % parent compound remaining, Average ([5]; pHLM, 9 min): 32.3%; % parent compound remaining, Average ([5]; pHLM, 15 min): 14.6%; % parent compound remaining, Average ([5]; pHLM, 30 min): 2.5%; Microsomal Intrinsic Clearance, CLint micr ([5]; pHLM): 0.253 ± 0.026 mL min^−1 mg Microsomal Protein^−1; Hepatic extraction ratio, EH [5, 13]: 0.16 ± 0.014; Predicted in vivo hepatic clearance, CLH [5, 13]: 3.32 mL/min/kg; Hepatic extraction ratio, EH [5, 14]: 0.21 ± 0.017; Predicted in vivo hepatic clearance, CLH [5, 14]: 4.38 ± 0.36 mL/min/kg
